Test results reported in PubChem BioAssay AID1918998 (Molecular Pharmacology Branch, DTP, NCI, 2023).
Where “and” joins values, the source holds several entries; their conditions need not be identical. Equal entries are not always repeated.

System: 521955-158-R2-J5-PDC complex spheroid growth
Assay: Anticancer human tumor 521955-158-R2-J5-PDC patient-derived pancreatic carcinoma cell line growth inhibition [AhR]
Conditions: for viability, T/C: stronger effect = lower value; active = viability on the fitted dose curve at most 10% of control; inactive = the rest
Description: Multicellular complex tumor spheroid response to aryl hydrocarbon receptor antagonists in combination with a variety of drugs and investigational agents in selected tumor cell lines
The current study was undertaken to assess response to aryl hydrocarbon receptor antagonists in combination with standard-of-care drugs and investigational agents in solid tumor complex spheroid models. Complex spheroids include a stromal component modeled by human endothelial cells (HUVEC) and fibroblasts modeled by human mesenchymal stem cells (MSCs). The concentration ranges selected for each drug and investigational agent were based upon clinically achievable concentrations if the clinical Cmax of the agent was known.
Compounds. The drugs and investigational agents: BAY 2416964 (NSC825713), GNF351 (NSC835774), CH-223191 (NSC835775), CPI-455 (NSC825282), aza-TdCyd (NSC777586), decitabine (NSC127716), belinostat (NSC758774), entinostat (NSC756642), pevonedistat (NSC761192), tazemetostat (NSC777109), talazoparib (NSC765396), olaparib (NSC753686), selinexor (NSC780203), nedisertib (M3814, NSC802822), bortezomib (NSC756655), venetoclax (NSC766270), doxorubicin (NSC123127), elimusertib (BAY189344, NSC800525), ceralasertib (AZD6738, NSC777638), TAK-243 (NSC785004), alisertib (NSC759677), etoposide (NSC141540), topotecan (NSC609699), eribulin (NSC707389), gemcitabine (NSC613327), carboplatin (NSC241240), cisplatin (NSC119875), and SN-38 (NSC673596) were obtained from the National Cancer Institute (NCI) Developmental Therapeutics Program Chemical Repository (32). The FDA-approved anticancer drug set is available from the Developmental Therapeutics Program at https://dtp.cancer.gov/organization/dscb/obtaining/available plates.htm. […] The stock solutions were prepared in dimethyl sulfoxide (DMSO, Sigma-Aldrich, St. Louis, MO, cat. D2650), except for the platinum compounds which were prepared in saline (Quality Biological, Gaithersburg, MD, cat. 114-055-101), at 800-fold the tested concentration and stored at -70 degrees C prior to their use. All drugs and investigational agents were tested over a range starting from a high concentration at or near the clinical Cmax and decreasing in half-log increments. If the clinical Cmax for an agent had not been determined, the highest concentration tested was 10 microM (Table 1).
Cell Culture. All cells were maintained in an incubator at 37 degrees C and 5% CO2 with 95% humidity. The PDC lines were cultured according to standard operating procedures established by the NCI PDMR (https://pdmr.cancer.gov). Briefly, all PDCs were thawed and cultured in Matrigel-coated flasks prepared with a working solution of 1X Ham's F-12 nutrient mix, without supplementation (Invitrogen, Waltham, MA, cat. 11765054), 100 U/mL penicillin-streptomycin (Invitrogen, cat. 15140122), and 2.5% Matrigel (Corning Inc., Corning, NY, cat. 354248) for the first three passages. All PDCs were cultured in complete DMEM/F-12 media containing advanced DMEM/F-12 (Invitrogen, cat. 12634028), 4.9% defined fetal bovine serum, heat inactivated (HyClone Laboratories Inc., Logan, UT, cat. SH30070.03HI), 389 ng/mL hydrocortisone (Sigma-Aldrich, cat. H4001), 9.7 ng/mL human EGF recombinant protein (Invitrogen, cat. PHG0313), 23.4 microg/mL adenine (Sigma-Aldrich, cat. A2786), 97.3 U/mL penicillin-streptomycin (Invitrogen, cat. 15140122), 1.9 mM L-glutamine (Invitrogen, cat. 25030081), and 9.7 microM Y-27632 dihydrochloride (Tocris Bioscience, Bristol, United Kingdom, cat. 1254). The PDCs were cultured in complete DMEM/F12 media without 10 microM Y-27632 dihydrochloride for at least two passages prior to the screen. The established cell lines NCI-H1341 and […] were cultured in DMEM/F-12, HEPES (Invitrogen, cat. 11330032), 5% defined fetal bovine serum (HyClone Laboratories Inc., cat. SH30070.03), ITS premix universal culture supplement [insulin (5 microg/mL), transferrin (5 microg/mL), and selenious acid (5 ng/mL)] […]

[1] = curve of first compound, second compound 0.1 µM
[2] = curve of first compound, second compound 0.316 µM
[3] = curve of first compound, second compound 1 µM
[4] = curve of first compound, second compound 3.16 µM
[5] = curve of first compound, second compound 10 µM
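Throughout, for viability, T/C: spheroids mix tumor cells with HUVEC endothelium and human MSC stroma; luminescence taken as viability surrogate after a week of drug exposure.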

CCN(c1cc(-c2ccc(CN3CCOCC3)cc2)cc(C(=O)NCc2c(C)cc(C)[nH]c2=O)c1C)C1CCOCC1 + Cc1cncc(-c2nc(NCCc3c[nH]c4ccccc34)c3ncn(C(C)C)c3n2)c1
inactive: viability, T/C (second compound 0.1 µM, first compound 0.00949 µM) 118% | viability, T/C (second compound 0.1 µM, first compound 0.03 µM) 112% | viability, T/C (second compound 0.1 µM, first compound 0.0949 µM) 124% | viability, T/C (second compound 0.1 µM, first compound 0.3 µM) 94.7% | viability, T/C (second compound 0.1 µM, first compound 0.949 µM) 117% | viability, T/C (second compound 0.1 µM, first compound 3 µM) 95.9% | viability, T/C (second compound 0.316 µM, first compound 0.00949 µM) 99.5% | viability, T/C (second compound 0.316 µM, first compound 0.03 µM) 108% | viability, T/C (second compound 0.316 µM, first compound 0.0949 µM) 106% | viability, T/C (second compound 0.316 µM, first compound 0.3 µM) 109% | viability, T/C (second compound 0.316 µM, first compound 0.949 µM) 110% | viability, T/C (second compound 0.316 µM, first compound 3 µM) 104% | viability, T/C (second compound 1 µM, first compound 0.00949 µM) 125% | viability, T/C (second compound 1 µM, first compound 0.03 µM) 130% | viability, T/C (second compound 1 µM, first compound 0.0949 µM) 122% | viability, T/C (second compound 1 µM, first compound 0.3 µM) 118% | viability, T/C (second compound 1 µM, first compound 0.949 µM) 99.6% | viability, T/C (second compound 1 µM, first compound 3 µM) 115% | viability, T/C (second compound 3.16 µM, first compound 0.00949 µM) 158% | viability, T/C (second compound 3.16 µM, first compound 0.03 µM) 133% | viability, T/C (second compound 3.16 µM, first compound 0.0949 µM) 130% | viability, T/C (second compound 3.16 µM, first compound 0.3 µM) 148% | viability, T/C (second compound 3.16 µM, first compound 0.949 µM) 110% | viability, T/C (second compound 3.16 µM, first compound 3 µM) 124% | viability, T/C (second compound 10 µM, first compound 0.00949 µM) 112% | viability, T/C (second compound 10 µM, first compound 0.03 µM) 140% | viability, T/C (second compound 10 µM, first compound 0.0949 µM) 111% | viability, T/C (second compound 10 µM, first compound 0.3 µM) 116% | viability, T/C (second compound 10 µM, first compound 0.949 µM) 84.2% | viability, T/C (second compound 10 µM, first compound 3 µM) 72.3%
> 3000 nM: IC50 [1] | IC50 [2] | IC50 [3] | IC50 [4] | IC50 [5]

O=C(C=Cn1cnc(-c2cc(C(F)(F)F)cc(C(F)(F)F)c2)n1)NNc1cnccn1
256 nM and 163 nM and 48.8 nM: IC50 (curve of compound)
inactive: viability, T/C (compound 0.00949 µM) 73.8% and 59.8% (2×) | viability, T/C (compound 0.03 µM) 59.6% and 58.9% and 58.5% | viability, T/C (compound 0.0949 µM) 50.6% and 38.9% and 40.5% | viability, T/C (compound 0.3 µM) 55.6% and 49.5% and 37.7% | viability, T/C (compound 0.949 µM) 45.3% and 45.9% and 37.6% | viability, T/C (compound 3 µM) 29.1% and 24.8% and 27.1%

COc1cccc2c1C(=O)c1c(O)c3c(c(O)c1C2=O)CC(O)(C(=O)CO)CC3OC1CC(N)C(O)C(C)O1 (configuration not stated) + CC(CO)NC(=O)c1cc(-c2ccc(Cl)cc2)nn(-c2cnn(C)c2)c1=O
< 31.6 nM: IC50 [1] | IC50 [4]
38.7 nM: IC50 [5]
inactive: viability, T/C (second compound 0.1 µM, first compound 0.0316 µM) 49.1% | viability, T/C (second compound 0.1 µM, first compound 0.1 µM) 45.1% | viability, T/C (second compound 0.1 µM, first compound 0.316 µM) 28% | viability, T/C (second compound 0.316 µM, first compound 0.0316 µM) 54.6% | viability, T/C (second compound 0.316 µM, first compound 0.1 µM) 42.6% | viability, T/C (second compound 0.316 µM, first compound 0.316 µM) 24.5% | viability, T/C (second compound 1 µM, first compound 0.0316 µM) 56.4% | viability, T/C (second compound 1 µM, first compound 0.1 µM) 41.7% | viability, T/C (second compound 1 µM, first compound 0.316 µM) 24.1% | viability, T/C (second compound 1 µM, first compound 1 µM) 9.29% | viability, T/C (second compound 3.16 µM, first compound 0.0316 µM) 50.7% | viability, T/C (second compound 3.16 µM, first compound 0.1 µM) 41.8% | viability, T/C (second compound 3.16 µM, first compound 0.316 µM) 25.8% | viability, T/C (second compound 3.16 µM, first compound 1 µM) 8.77% | viability, T/C (second compound 10 µM, first compound 0.0316 µM) 52.9% | viability, T/C (second compound 10 µM, first compound 0.1 µM) 37% | viability, T/C (second compound 10 µM, first compound 0.316 µM) 18.7% | viability, T/C (second compound 10 µM, first compound 1 µM) 6.31%
active: viability, T/C (second compound 0.1 µM, first compound 1 µM) 2.42% | viability, T/C (second compound 0.1 µM, first compound 3.16 µM) 7.75% | viability, T/C (second compound 0.1 µM, first compound 10 µM) 13.9% | viability, T/C (second compound 0.316 µM, first compound 1 µM) 2.21% | viability, T/C (second compound 0.316 µM, first compound 3.16 µM) 5.07% | viability, T/C (second compound 0.316 µM, first compound 10 µM) 13.4% | viability, T/C (second compound 1 µM, first compound 3.16 µM) 2.9% | viability, T/C (second compound 1 µM, first compound 10 µM) 14.6% | viability, T/C (second compound 3.16 µM, first compound 3.16 µM) 7.63% | viability, T/C (second compound 3.16 µM, first compound 10 µM) 14% | viability, T/C (second compound 10 µM, first compound 3.16 µM) 6.29% | viability, T/C (second compound 10 µM, first compound 10 µM) 13.8%
50.1 nM: IC50 [2]
53.3 nM: IC50 [3]
